18 compounds from PubChem BioAssay AID200 (DTP/NCI, 2004) can be followed below.

Structures are written as SMILES. Values joined by “and” are separate entries in the source; they are usually repeats but may differ in a detail not shown here. Equal entries are not always repeated. Inconclusive results and toxic doses are left out.

In the assay the test system is B6C3F1 mice, B16 melanoma ip, median survival T/C. Description: NCI In Vivo Anticancer Drug Screen. Data for tumor model B16 Melanoma (intraperitoneal) in B6C3F1 mice. The following applies: endpoint: median survival time, higher = longer survival. The method in brief:
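Readout: survival or tumor size in treated mice relative to vehicle controls (T/C). Model uses transplantable tumors grown in mice.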

Setting [1] is: dose: 3.12 mg/kg/injection, schedule: Q01DX009 (ip), vehicle: saline with Tween-80.
Setting [2] is: dose: 6.25 mg/kg/injection, schedule: Q01DX009 (ip), vehicle: saline with Tween-80.
[3] abbreviates: dose: 12.5 mg/kg/injection, schedule: Q01DX009 (ip), vehicle: saline with Tween-80.
Setting [4] is: dose: 25.0 mg/kg/injection, schedule: Q01DX009 (ip), vehicle: saline with Tween-80.
Setting [5] is: dose: 50.0 mg/kg/injection, schedule: Q01DX009 (ip), vehicle: saline with Tween-80.
The mark [6] stands for this setting: dose: 12.5 mg/kg/injection, schedule: Q01DX009 (ip), vehicle: saline.
The mark [7] stands for this setting: dose: 25.0 mg/kg/injection, schedule: Q01DX009 (ip), vehicle: saline.
Where [8] appears, read: dose: 50.0 mg/kg/injection, schedule: Q01DX009 (ip), vehicle: saline.
[9] abbreviates: dose: 100.0 mg/kg/injection, schedule: Q01DX009 (ip), vehicle: saline with Tween-80.
The mark [10] stands for this setting: dose: 100.0 mg/kg/injection, schedule: Q01DX009 (ip), vehicle: saline.
Setting [11] is: dose: 25.0 mg/kg/injection, schedule: Q01DX009 (ip), vehicle: Klucel (hydroxypropylcellulose) (HPC).
Where [12] appears, read: dose: 50.0 mg/kg/injection, schedule: Q01DX009 (ip), vehicle: Klucel (hydroxypropylcellulose) (HPC).
[13] abbreviates: dose: 0.5 mg/kg/injection, schedule: Q01DX009 (ip), vehicle: Klucel (hydroxypropylcellulose) (HPC).
Setting [14] is: dose: 100.0 mg/kg/injection, schedule: Q01DX009 (ip), vehicle: Klucel (hydroxypropylcellulose) (HPC).
[15] abbreviates: dose: 75.0 mg/kg/injection, schedule: Q01DX009 (ip), vehicle: saline with Tween-80.
Where [16] appears, read: dose: 150.0 mg/kg/injection, schedule: Q01DX009 (ip), vehicle: saline with Tween-80.

Regarding `COc1ccc(S(=O)(=O)N=N/C=C2\C=CC=CN2O)cc1OC`, the T/C is 119 % of control (dose: 3.0 mg/kg/injection, schedule: Q01DX009 (ip), vehicle: saline with Tween-80); 111 % of control under setting [1]; 123 % of control (dose: 6.0 mg/kg/injection, schedule: Q01DX009 (ip), vehicle: saline with Tween-80); 102 % of control under setting [2]; 107 % of control under setting [3]; 123 % of control under setting [4]. Under setting [5], the T/C is 122 % of control.

`CC(=O)O[C@H]1C(=O)[C@@]2(C)C(C(OC(=O)c3ccccc3)[C@]3(O)CC(OC(=O)[C@H](OC(=O)CCC(=O)O)C(NC(=O)c4ccccc4)c4ccccc4)C(C)=C1C3(C)C)C1(OC(C)=O)COC1C[C@@H]2O` (stereo partly drawn): the T/C by setting is: (dose: 1.25 mg/kg/injection, schedule: Q01DX009 (ip), vehicle: water) 111 % of control; (dose: 2.5 mg/kg/injection, schedule: Q01DX009 (ip), vehicle: sodium bicarbonate) 119 % of control; (dose: 2.5 mg/kg/injection, schedule: Q01DX009 (ip), vehicle: water) 159 % of control; (dose: 5.0 mg/kg/injection, schedule: Q01DX009 (ip), vehicle: sodium bicarbonate) 154 % of control; (dose: 5.0 mg/kg/injection, schedule: Q01DX009 (ip), vehicle: water) 166 % of control; (dose: 10.0 mg/kg/injection, schedule: Q01DX009 (ip), vehicle: sodium bicarbonate) 159 % of control. In addition, the T/C was 160 % of control and 183 % of control (dose: 10.0 mg/kg/injection, schedule: Q01DX009 (ip), vehicle: water); 154 % of control (dose: 20.0 mg/kg/injection, schedule: Q01DX009 (ip), vehicle: sodium bicarbonate); 160 % of control and 201 % of control (dose: 20.0 mg/kg/injection, schedule: Q01DX009 (ip), vehicle: water); 185 % of control (dose: 40.0 mg/kg/injection, schedule: Q01DX009 (ip), vehicle: sodium bicarbonate); 177 % of control and 218 % of control (dose: 40.0 mg/kg/injection, schedule: Q01DX009 (ip), vehicle: water).

Turning to `COC(=O)Nc1nc2ccc(C3(c4ccc(F)cc4)OCCO3)cc2[nH]1`, the T/C reads like this: under setting [2], 93 % of control; under setting [3], 118 % of control; under setting [6], 117 % of control; under setting [5], 172 % of control.

Turning to `Nc1nc(F)nc2c1ncn2C1OC(COP(=O)(O)O)C(O)C1O` (stereo not drawn), the T/C runs as follows: (dose: 12.5 mg/kg/injection, schedule: Q01DX009 (ip), vehicle: suspension in saline) 90 % of control; (dose: 25.0 mg/kg/injection, schedule: Q01DX009 (ip), vehicle: suspension in saline) 97 % of control; (dose: 50.0 mg/kg/injection, schedule: Q01DX009 (ip), vehicle: suspension in saline) 93 % of control; (dose: 100.0 mg/kg/injection, schedule: Q01DX009 (ip), vehicle: suspension in saline) 105 % of control.

Consider `Clc1cc(Cl)c(C[N+]23CN4CN(CN(C4)C2)C3)cc1Cl`, for which the T/C is, setting by setting: under setting [3], 101 % of control; under setting [6], 102 % of control; under setting [4], 105 % of control; under setting [7], 100 % of control; under setting [5], 102 % of control; under setting [8], 106 % of control. In addition, the T/C runs as follows: under setting [9], 107 % of control; under setting [10], 111 % of control.

Turning to `COc1cccc2c1C(=O)c1c(O)c3c(c(O)c1C2=O)C[C@@](O)(/C(C)=N/NC(N)=S)C[C@@H]3OC1CC(N)C(O)C(C)O1` (stereo partly drawn), the T/C runs as follows: (dose: 12.5 mg/kg/injection, schedule: Q01DX001 (ip), vehicle: water) 155 % of control and 166 % of control; (dose: 25.0 mg/kg/injection, schedule: Q01DX001 (ip), vehicle: water) 185 % of control and 202 % of control; (dose: 50.0 mg/kg/injection, schedule: Q01DX001 (ip), vehicle: water) 185 % of control and 220 % of control; (dose: 100.0 mg/kg/injection, schedule: Q01DX001 (ip), vehicle: water) 201 % of control.

Regarding `O=C1C=CN(C2OC(CO)C(O)C2O)C(=O)C1` (stereo not drawn), the T/C by setting is: under setting [7], 97 % of control; under setting [8], 108 % of control; under setting [10], 102 % of control; (dose: 200.0 mg/kg/injection, schedule: Q01DX009 (ip), vehicle: saline) 105 % of control; (dose: 400.0 mg/kg/injection, schedule: Q01DX009 (ip), vehicle: saline) 115 % of control.

With `O=c1nc(Oc2ccccc2)nc2ncccn12`, under setting [1], the T/C was 108 % of control and 101 % of control and 102 % of control.

Regarding `COc1cc2cc3cc4cc(OC)c(OC)cc4c(C)[n+]3cc2cc1OC` (tested in a mixture with another compound), the T/C by setting is: under setting [6], 106 % of control; under setting [7], 100 % of control; under setting [8], 100 % of control; under setting [10], 90 % of control.

For the compound `C=C(C)[C@@H]1CC[C@]2(C(=O)OC)CC[C@]3(C)[C@H](CC[C@@H]4[C@@]5(C)CC[C@H](O)C(C)(C)[C@@H]5CC[C@]43C)[C@@H]12`, the T/C is, setting by setting: under setting [11], 107 % of control; under setting [12], 86 % of control.

Turning to `COC(=O)C12OCC34C(CC5C(C)C6=CC(=O)OC6=CC5(C)C3C(O)C1O)OC(=O)C(O)C24` (stereo not drawn), the T/C under setting [13] was 154 % of control; the T/C (dose: 180.0 micrograms/kg/injection, schedule: Q01DX009 (ip), vehicle: Klucel (hydroxypropylcellulose) (HPC)) is 116 % of control; the T/C (dose: 833.3 micrograms/kg/injection, schedule: Q01DX009 (ip), vehicle: Klucel (hydroxypropylcellulose) (HPC)) is 153 % of control; the T/C (dose: 1388.8 micrograms/kg/injection, schedule: Q01DX009 (ip), vehicle: Klucel (hydroxypropylcellulose) (HPC)) was 178 % of control.

As to `Cn1c2ccccc2c(=O)c2c(O)cc3c(c21)C=CC(C)(C)O3`, the T/C runs as follows: under setting [11], 86 % of control; under setting [12], 89 % of control; under setting [14], 96 % of control.

Regarding `O=C1c2ccccc2C(=O)N1CC#CCN1C(=O)c2ccccc2C1=O`, the T/C by setting is: under setting [15], 108 % of control; under setting [16], 93 % of control; (dose: 300.0 mg/kg/injection, schedule: Q01DX009 (ip), vehicle: saline with Tween-80) 90 % of control.

Regarding `O=C(NC(Cc1c[nH]c2ccccc12)C(=O)O)OCC1c2ccccc2-c2ccccc21` (stereo not drawn), the T/C is, setting by setting: under setting [11], 102 % of control; under setting [12], 92 % of control; under setting [14], 103 % of control.

For `O=c1ccc(N=Nc2ccccc2)ccc1Cl`, the T/C is, setting by setting: (dose: 0.25 mg/kg/injection, schedule: Q01DX009 (ip), vehicle: Klucel (hydroxypropylcellulose) (HPC)) 98 % of control; under setting [13], 93 % of control; (dose: 1.0 mg/kg/injection, schedule: Q01DX009 (ip), vehicle: Klucel (hydroxypropylcellulose) (HPC)) 100 % of control.

Turning to `CSCS(=O)C[C@H](CO)NC(=O)/C=C/c1c(C)[nH]c(=O)[nH]c1=O` (stereo partly drawn), the T/C was 100 % of control and 104 % of control (dose: 0.03 mg/kg/injection, schedule: Q01DX009 (ip), vehicle: saline); 112 % of control and 102 % of control (dose: 0.06 mg/kg/injection, schedule: Q01DX009 (ip), vehicle: saline); 98 % of control and 102 % of control (dose: 0.12 mg/kg/injection, schedule: Q01DX009 (ip), vehicle: saline); 118 % of control and 98 % of control (dose: 0.25 mg/kg/injection, schedule: Q01DX009 (ip), vehicle: saline); 102 % of control (dose: 0.5 mg/kg/injection, schedule: Q01DX009 (ip), vehicle: saline); 98 % of control (dose: 1.0 mg/kg/injection, schedule: Q01DX009 (ip), vehicle: saline).

For the compound `c1ccc(Cc2ccccc2)cc1`, the T/C was 90 % of control under setting [5]; 90 % of control under setting [9]; 95 % of control (dose: 200.0 mg/kg/injection, schedule: Q01DX009 (ip), vehicle: saline with Tween-80).

As to `OCC1OC(n2cnc3c(SCc4ccccc4)ncnc32)C(O)C1O` (stereo not drawn), the T/C by setting is: (dose: 37.5 mg/kg/injection, schedule: Q01DX009 (ip), vehicle: saline with Tween-80) 171 % of control; under setting [15], 167 % of control; under setting [16], 182 % of control.
